Test system: NOMO1
Assay: cell viability relative to DMSO control; higher = less cytotoxic
Details: 48 h
Method in brief: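 NOMO1 or SEM cells were plated at 500 cells/well and P12-Ichikawa cells at 1000 cells/well in 1536-well plates (5 μl), after each leukemia line had been adapted for at least four passages in each medium. Pin dosing delivered library compounds in DMSO at 11 threefold concentrations, 47 μM to 0.79 nM. CellTiter-Glo One luminescence was read after 48 h at 37°C. Viability is reported as a per-plate percentage of DMSO wells, with cell-free wells as background.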

[1] = HPLM + 10% dialyzed FBS, 0.000781 µM
[2] = HPLM + 10% dialyzed FBS, 0.00234 µM
[3] = HPLM + 10% dialyzed FBS, 0.00702 µM
[4] = HPLM + 10% dialyzed FBS, 0.0211 µM
[5] = HPLM + 10% dialyzed FBS, 0.0632 µM
[6] = HPLM + 10% dialyzed FBS, 0.19 µM
[7] = HPLM + 10% dialyzed FBS, 0.569 µM
[8] = HPLM + 10% dialyzed FBS, 1.71 µM
[9] = HPLM + 10% dialyzed FBS, 5.12 µM
[10] = HPLM + 10% dialyzed FBS, 15.4 µM
[11] = HPLM + 10% dialyzed FBS, 46.1 µM
[12] = RPMI 5 mM glucose + 10% FBS, 0.000781 µM
[13] = RPMI 5 mM glucose + 10% FBS, 0.00234 µM
[14] = RPMI 5 mM glucose + 10% FBS, 0.00702 µM
[15] = RPMI 5 mM glucose + 10% FBS, 0.0211 µM
[16] = RPMI 5 mM glucose + 10% FBS, 0.0632 µM
[17] = RPMI 5 mM glucose + 10% FBS, 0.19 µM
[18] = RPMI 5 mM glucose + 10% FBS, 0.569 µM
[19] = RPMI 5 mM glucose + 10% FBS, 1.71 µM
[20] = RPMI 5 mM glucose + 10% FBS, 5.12 µM
[21] = RPMI 5 mM glucose + 10% FBS, 15.4 µM
[22] = RPMI 5 mM glucose + 10% FBS, 46.1 µM
[23] = RPMI 5 mM glucose + 10% dialyzed FBS, 0.000781 µM
[24] = RPMI 5 mM glucose + 10% dialyzed FBS, 0.00234 µM
[25] = RPMI 5 mM glucose + 10% dialyzed FBS, 0.00702 µM
[26] = RPMI 5 mM glucose + 10% dialyzed FBS, 0.0211 µM
[27] = RPMI 5 mM glucose + 10% dialyzed FBS, 0.0632 µM
[28] = RPMI 5 mM glucose + 10% dialyzed FBS, 0.19 µM
[29] = RPMI 5 mM glucose + 10% dialyzed FBS, 0.569 µM
[30] = RPMI 5 mM glucose + 10% dialyzed FBS, 1.71 µM
[31] = RPMI 5 mM glucose + 10% dialyzed FBS, 5.12 µM
[32] = RPMI 5 mM glucose + 10% dialyzed FBS, 15.4 µM
[33] = RPMI 5 mM glucose + 10% dialyzed FBS, 46.1 µM

| Structure (SMILES) | cell viability [1] | cell viability [2] | cell viability [3] | cell viability [4] | cell viability [5] | cell viability [6] | cell viability [7] | cell viability [8] | cell viability [9] | cell viability [10] | cell viability [11] | cell viability [12] | cell viability [13] | cell viability [14] | cell viability [15] | cell viability [16] | cell viability [17] | cell viability [18] | cell viability [19] | cell viability [20] | cell viability [21] | cell viability [22] | cell viability [23] | cell viability [24] | cell viability [25] | cell viability [26] | cell viability [27] | cell viability [28] | cell viability [29] | cell viability [30] | cell viability [31] | cell viability [32] | cell viability [33] |
| --- | --- | --- | --- | --- | --- | --- | --- | --- | --- | --- | --- | --- | --- | --- | --- | --- | --- | --- | --- | --- | --- | --- | --- | --- | --- | --- | --- | --- | --- | --- | --- | --- | --- |
| CCOC(=O)C(C)OC1=CC=CC2=C1\C=C/N(CC(=O)NC3=CC=C4OCCOC4=C3)C2=O (configuration not stated) | 82.7% | 96.6% | 94.4% | 97.2% | 90.8% | 98.5% | 99.8% | 94.7% | 80.5% | 81.8% | 97.2% | 81.7% | 89.4% | 101% | 96.8% | 91% | 88.8% | 96.7% | 87.8% | 89.4% | 89.5% | 87.5% | 92.3% | 89.8% | 98.2% | 92.2% | 94.6% | 92.3% | 94.9% | 88.8% | 74.6% | 91.9% | 109% |
| COC1=C(OCCCN2CCOCC2)C=CC\3=C1/N=C(/NC(=O)C4=CN=C(N)N=C4)N5CC/N=C35 | 101% | 111% | 111% | 89.4% | 99.4% | 73.2% | 55.5% | 59.4% | 44.6% | 42.2% | 39.8% | 83.3% | 90.5% | 84.4% | 78.9% | 83.3% | 80.5% | 71.9% | 59.6% | 52% | 49.3% | 46.1% | 94.7% | 105% | 88.9% | 92.7% | 77.8% | 63.5% | 59.6% | 54.1% | 49.6% | 49.1% | 34.6% |
| CC[C@H]1OC(=O)[C@H](C)C(=O)[C@H](C)[C@@H](O[C@H]2O[C@H](C)C[C@H](N(C)C)[C@H]2O)[C@](C)(OC)C[C@@H](C)C(=O)[C@H](C)[C@H]2N(CCCCn3cnc(-c4cccnc4)c3)C(=O)O[C@]12C | – | – | – | – | – | – | – | – | – | – | – | 127% | 118% | 118% | 111% | 115% | 120% | 104% | 116% | 118% | 107% | 103% | 102% | 121% | 110% | 109% | 113% | 104% | 100% | 98.8% | 116% | 107% | 95.9% |
| C[C@@H](CN1CC(=O)NC(=O)C1)N1CC(=O)NC(=O)C1 | 112% | 125% | 121% | 117% | 113% | 55.7% | 32.8% | 22.3% | 33% | 8.92% | 13.7% | 106% | 113% | 125% | 101% | 113% | 89% | 55.9% | 15.4% | 17.5% | 8.63% | 12.9% | 102% | 111% | 99.9% | 114% | 109% | 83% | 44.7% | 18.8% | 21.5% | 17.2% | 19.8% |
| O=C(O)c1cc(/N=N/c2ccc([S+](=O)([O-])Nc3ccccn3)cc2)ccc1O | 102% | 113% | 108% | 104% | 121% | 109% | 104% | 115% | 111% | 105% | 91% | 101% | 107% | 115% | 96.8% | 99.2% | 102% | 102% | 98.2% | 114% | 98.7% | 97.6% | 95.1% | 96.9% | 109% | 94.3% | 106% | 97% | 115% | 111% | 91.2% | 98.9% | 102% |
| NC[C@H]1O[C@H](O[C@@H]2[C@H](O)[C@@H](O[C@H]3O[C@H](CO)[C@@H](O)[C@H](N)[C@H]3O)[C@H](N)C[C@@H]2N)[C@H](O)[C@@H](O)[C@@H]1O | 132% | 122% | 121% | 111% | 135% | 127% | 113% | 129% | 112% | 121% | 109% | – | – | – | – | – | – | – | – | – | – | – | 120% | 128% | 114% | 124% | 113% | 124% | 113% | 123% | 120% | 106% | 112% |
| COc1cc[nH]c2ncc(C(=O)C(=O)N3CCN(C(=O)c4ccccc4)C[C@H]3C)c1-2 | 137% | 121% | 111% | 105% | 121% | 108% | 106% | 108% | 120% | 100% | 99.1% | 99.9% | 101% | 101% | 101% | 99% | 99.2% | 100% | 99.1% | 107% | 105% | 102% | 109% | 117% | 114% | 115% | 119% | 108% | 108% | 105% | 99.2% | 103% | 91.9% |
| Cc1ccc([S+](=O)([O-])OCC(=O)Nc2ccc(C(=O)O)c(O)c2)cc1 | 141% | 123% | 121% | 117% | 124% | 145% | 128% | 132% | 124% | 146% | 84.1% | 122% | 119% | 124% | 139% | 133% | 150% | 133% | 130% | 118% | 121% | 102% | 106% | 113% | 127% | 121% | 131% | 139% | 142% | 142% | 146% | 146% | 122% |
